Earlier results on two molecules are cited in patent US20200003795A1, “DETERMINATION OF ANALYTES IN LIQUID SAMPLES BY MASS SPECTROMETRY” (Quest Diagnostics Investments Incorporated, priority 2001, published 2020).

For series [1] the following is noted: circulating drug, at a therapeutic level of 1-10 μg/mL.
Test in series [2]: not given
This is another data set of the same source.

Each structure is given as a SMILES string. Read-outs that look alike come from different tables or passages of the source.

On to `Nc1nnc(-c2cccc(Cl)c2Cl)c(N)n1` [lamotrigine, 6-(2,3-dichlorophenyl)-1,2,4-triazine-3,5-diamine], for which the therapeutic level (circulating) was 1 to 10 µg/mL. In addition, the half-life is, setting by setting: (multiple doses) 7.5 to 23.1 h; (single dose) 6.4 to 30.4 h. In addition, in series [1], the bound to protein result was “about 55%”.
Consider `CO[C@H]1C[C@@H]2CC[C@@H](C)[C@@](O)(O2)C(=O)C(=O)N2CCCC[C@H]2C(=O)O[C@H]([C@H](C)C[C@@H]2CC[C@@H](O)[C@H](OC)C2)CC(=O)[C@H](C)/C=C(\C)[C@@H](O)[C@@H](OC)C(=O)[C@H](C)C[C@H](C)/C=C/C=C/C=C/1C` [sirolimus], for which, in series [2] (blood, trough), the “Therapeutic levels in blood” value is 3 to 18 ng/mL. Besides, the mean-time-to-peak concentration in series [2] (on administration) is 1 to 2 h.

As a reminder, the half-life is the time in which the quantity being followed falls by half.
